19 molecules from PubChem BioAssay AID192 (DTP/NCI, 2004) can be followed below.

The test relates to BDF1 mice, B16 melanoma ip, median survival T/C. Nature of the test: NCI In Vivo Anticancer Drug Screen. Data for tumor model B16 Melanoma (intraperitoneal) in B6D2F1 (BDF1) mice. The note with it: endpoint: median survival time, higher = longer survival. A digest of the protocol:
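Survival or tumor size is measured after treatment of tumor-bearing mice and normalised to the vehicle-treated control group.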

Setting [1] is: dose: 25.0 mg/kg/injection, schedule: Q01DX009 (ip), vehicle: saline with Tween-80.
Setting [2] is: dose: 50.0 mg/kg/injection, schedule: Q01DX009 (ip), vehicle: saline with Tween-80.
The mark [3] stands for this setting: dose: 100.0 mg/kg/injection, schedule: Q01DX009 (ip), vehicle: saline with Tween-80.
The mark [4] stands for this setting: dose: 100.0 mg/kg/injection, schedule: Q04DX003 (ip), vehicle: saline with Tween-80.
The mark [5] stands for this setting: dose: 200.0 mg/kg/injection, schedule: Q04DX003 (ip), vehicle: saline with Tween-80.
Where [6] appears, read: dose: 25.0 mg/kg/injection, schedule: Q01DX009 (ip), vehicle: saline.
The mark [7] stands for this setting: dose: 50.0 mg/kg/injection, schedule: Q01DX009 (ip), vehicle: saline.
Setting [8] is: dose: 200.0 mg/kg/injection, schedule: Q01DX009 (ip), vehicle: saline with Tween-80.
The mark [9] stands for this setting: dose: 400.0 mg/kg/injection, schedule: Q01DX009 (ip), vehicle: saline with Tween-80.
Where [10] appears, read: dose: 400.0 mg/kg/injection, schedule: Q04DX003 (ip), vehicle: saline with Tween-80.

Values joined by “and” are separate entries in the source; they are usually repeats but may differ in a detail not shown here. Equal entries are not always repeated. Inconclusive results and toxic doses are left out.

On to `C/C=C1/C[C@@H](C)[C@@](C)(O)C(=O)OCC2=CCN3CC[C@@H](OC1=O)[C@@H]23`, for which the T/C by setting is: (dose: 10.0 mg/kg/injection, schedule: Q01DX009 (ip), vehicle: saline) 110 % of control; (dose: 11.3 mg/kg/injection, schedule: Q01DX009 (ip), vehicle: saline) 111 % of control; (dose: 20.0 mg/kg/injection, schedule: Q01DX009 (ip), vehicle: saline) 113 % of control; (dose: 22.5 mg/kg/injection, schedule: Q01DX009 (ip), vehicle: saline) 285 % of control; (dose: 40.0 mg/kg/injection, schedule: Q01DX009 (ip), vehicle: saline) 108 % of control; (dose: 45.0 mg/kg/injection, schedule: Q01DX009 (ip), vehicle: saline) 102 % of control. The T/C (dose: 80.0 mg/kg/injection, schedule: Q01DX009 (ip), vehicle: saline) is 108 % of control and the T/C (dose: 90.0 mg/kg/injection, schedule: Q01DX009 (ip), vehicle: saline) was 88 % of control.
Turning to `O=C1NC(c2ccccc2)N=C2Oc3ccccc3C=C12` (stereo unspecified), the T/C by setting is: (dose: 1.56 mg/kg/injection, schedule: Q01DX009 (ip), vehicle: saline with Tween-80) 107 % of control; (dose: 3.12 mg/kg/injection, schedule: Q01DX009 (ip), vehicle: saline with Tween-80) 109 % of control and 113 % of control; (dose: 6.25 mg/kg/injection, schedule: Q01DX009 (ip), vehicle: saline with Tween-80) 108 % of control and 117 % of control; (dose: 12.5 mg/kg/injection, schedule: Q01DX009 (ip), vehicle: saline with Tween-80) 117 % of control; under setting [1], 117 % of control.
`CC(=O)C1=C(C)NC(C)=C(C(C)=O)C1c1cccc([N+](=O)[O-])c1`: the T/C under setting [1] was 94 % of control, the T/C under setting [2] is 94 % of control and the T/C under setting [3] is 97 % of control.
Regarding `CCCCNC(=O)Nc1c(C)cccc1C`, the T/C reads like this: (dose: 100.0 mg/kg/injection, schedule: Q01DX009 (ip), vehicle: gum acacia) 95 % of control; (dose: 200.0 mg/kg/injection, schedule: Q01DX009 (ip), vehicle: gum acacia) 94 % of control.
`Cc1cc(O)c2c(c1O)C(=O)C13C(=C2O)C(=O)C2C(O)C1C1C(O)C3C(=O)C3=C(O)c4c(O)cc(C)c(O)c4C(=O)C321` (stereo unspecified): the T/C by setting is: (dose: 0.19 mg/kg/injection, schedule: Q01DX009 (ip), vehicle: saline with Tween-80) 105 % of control; (dose: 0.39 mg/kg/injection, schedule: Q01DX009 (ip), vehicle: saline with Tween-80) 114 % of control; (dose: 0.78 mg/kg/injection, schedule: Q01DX009 (ip), vehicle: saline with Tween-80) 121 % of control.
Consider `CC(=O)C1CCC2C3CCC4=CC(=O)CC4(C)C3CCC12C` (stereo unspecified), for which the T/C under setting [4] is 94 % of control and the T/C under setting [5] was 105 % of control.
For the molecule `C[N+](C)(C)c1ncnc2nc[nH]c12`, the T/C is 92 % of control (dose: 12.5 mg/kg/injection, schedule: Q01DX009 (ip), vehicle: saline); 89 % of control under setting [6]; 93 % of control under setting [7]; 103 % of control (dose: 100.0 mg/kg/injection, schedule: Q01DX009 (ip), vehicle: saline); 87 % of control (dose: 200.0 mg/kg/injection, schedule: Q01DX009 (ip), vehicle: saline).
With `CN(C)C(C#N)C(=O)c1ccccc1` (stereo unspecified), the T/C (dose: 25.0 mg/kg/injection, schedule: Q01DX009 (ip), vehicle: Klucel (hydroxypropylcellulose) (HPC)) is 104 % of control; the T/C (dose: 50.0 mg/kg/injection, schedule: Q01DX009 (ip), vehicle: Klucel (hydroxypropylcellulose) (HPC)) is 97 % of control; the T/C (dose: 100.0 mg/kg/injection, schedule: Q01DX009 (ip), vehicle: Klucel (hydroxypropylcellulose) (HPC)) is 97 % of control.
As for `COc1c(C(C)(C)C)cc([N+](=O)[O-])c(C)c1[N+](=O)[O-]`, the T/C is 100 % of control (dose: 100.0 mg/kg/injection, schedule: Q04DX003 (ip), vehicle: Klucel (hydroxypropylcellulose) (HPC)); 96 % of control (dose: 200.0 mg/kg/injection, schedule: Q04DX003 (ip), vehicle: Klucel (hydroxypropylcellulose) (HPC)); 87 % of control (dose: 400.0 mg/kg/injection, schedule: Q04DX003 (ip), vehicle: Klucel (hydroxypropylcellulose) (HPC)).
Regarding `O=S(=O)(Nc1ccc(O)cc1)c1ccccc1`, the T/C reads like this: under setting [3], 97 % of control; under setting [8], 93 % of control; under setting [9], 90 % of control.
For `Cc1cccc(C)c1NC(=O)c1ccccc1C(=O)O`, in that order: 97 % of control, 92 % of control and 95 % of control.
For the molecule `CS(=O)(=O)c1cnc2ccccc2n1`, the T/C runs as follows: under setting [1], 94 % of control; under setting [2], 86 % of control.
As to `CCOC(=O)c1ccc(NS(C)(=O)=O)cc1`, the T/C by setting is: (dose: 75.0 mg/kg/injection, schedule: Q01DX009 (ip), vehicle: Klucel (hydroxypropylcellulose) (HPC)) 94 % of control; (dose: 150.0 mg/kg/injection, schedule: Q01DX009 (ip), vehicle: Klucel (hydroxypropylcellulose) (HPC)) 102 % of control; (dose: 300.0 mg/kg/injection, schedule: Q01DX009 (ip), vehicle: Klucel (hydroxypropylcellulose) (HPC)) 108 % of control.
As to `Cc1ccc(S(=O)(=O)N(C)C)cc1N`, the T/C is, setting by setting: under setting [3], 97 % of control; under setting [4], 100 % of control; under setting [8], 118 % of control; under setting [5], 102 % of control; under setting [9], 102 % of control; under setting [10], 100 % of control.
With `COCCOCCN1CCN(CCCN2c3ccccc3Sc3ccc(C(F)(F)F)cc32)CC1`, the T/C is, setting by setting: (dose: 0.31 mg/kg/injection, schedule: Q01DX009 (ip), vehicle: saline) 106 % of control; (dose: 0.62 mg/kg/injection, schedule: Q01DX009 (ip), vehicle: saline) 101 % of control; (dose: 1.25 mg/kg/injection, schedule: Q01DX009 (ip), vehicle: saline) 108 % of control; (dose: 2.5 mg/kg/injection, schedule: Q01DX009 (ip), vehicle: saline) 100 % of control.
Consider `Cc1cc(Cl)ccc1NC(=O)c1ccc([N+](=O)[O-])cc1`, for which the T/C reads like this: under setting [2], 104 % of control; under setting [3], 100 % of control; under setting [8], 103 % of control.
On to `OCc1ccccc1NCc1ccccc1`, for which the T/C by setting is: (dose: 100.0 mg/kg/injection, schedule: Q01DX009 (ip), vehicle: other) 91 % of control and 109 % of control; (dose: 200.0 mg/kg/injection, schedule: Q01DX009 (ip), vehicle: other) 100 % of control; (dose: 400.0 mg/kg/injection, schedule: Q01DX009 (ip), vehicle: other) 95 % of control and 98 % of control.
With `O=C(O)C(Br)C(Br)c1ccccc1` (stereo unspecified), the T/C runs as follows: under setting [4], 86 % of control; under setting [5], 93 % of control; under setting [10], 86 % of control.
`COc1ccccc1N1C(N)=NC(N)=NC1(C)C`: the T/C by setting is: under setting [6], 102 % of control; under setting [7], 108 % of control.
